Experimental data taken from patent publication US12570697B2, “Cyclic peptide useful in the treatment of cancer” (Syntherix Limited, priority 2019, dated 2026).
Entries after “also recorded” stand apart in the source; their conditions may differ. Ends that are not written are not given here.

Key:
[1] = tested on: NCI-H460 cells; experiment: viability assay of CLIP cyclised peptides on NCI-H460 cells (Example 3, Table 2); format: cell-based, human; details: for cytotoxic activity against NCIH460 cells (in words): with and without Nanocin-PRO
Protocol: The following protocol was used: • 1) NCI-H460 cells were grown in Ham's F12 media supplemented with 10% FBS. • 2) Cells were harvested and seeded into 96-well plates at 500 cells per well. • 3) Peptides were diluted 1:2 from DMSO stock solutions to generate a 9-point dose range from a top concentration of 300 μM. Final DMSO concentration was constant at 1% (v/v). • 4) In line with the supplied Nanocin-PRO protocol, diluted peptides were incubated with Nanocin-PRO in media for 20 minutes prior to addition to cells. Nanocin-PRO was used at a final assay concentration of 0.2 μl per well. • 5) Cells were grown in the presence of peptide for 96 hours at 37° C., 5% CO2 in a humidified atmosphere. • 6) After 96 h, Alamar blue 10% (v/v) was added, incubated for a further 4 h and fluorescent product detected using a BMG FLUOstar plate reader. • 7) Media only background readings were subtracted before data was analysed using a 4-parameter logistic equation in GraphPad Prism.
Viability assays of the CLIP cyclised peptides were performed to examine the effect of four HILRa clipped peptides on the viability of NCIH460 cells (up to three isomers for each of the peptides). […] Results for HILRa 16A, 16B, 16C and HILRa 17A, 17B and 17C are depicted in FIG. 2.
Assays were performed in the presence and absence of the peptide transfection reagent Nanocin-PRO.

[2] = tested on: H460 human non-small cell lung cancer cell lines; details: cited from earlier work
[3] = tested on: human non-small cell lung cancer cells (NCIH-460); experiment: killing of NCIH-460 cells by CLIPS-cyclised peptides of different warhead length (Table 1); format: cell-based
Protocol: The inventor undertook testing of the effect of various peptides which were cyclised using CLIPS technology on the killing of human non-small cell lung cancer cells (NCIH-460) in vitro. For each of the peptides, between two and four isomer fractions were received, giving a total of 12 peptide entities tested.
The following warhead lengths, obtained by adding flanking sarcosine residues, were tested: […]

[4] = 0.2 μl Nanocin-PRO per well, 96 h
[5] = 0.2 μl Nanocin-PRO per well, 96 h, values in brackets approximate

Compound | % inhibition at 300 μM [1, 4] | % inhibition at 300 μM ([1]; No Nanocin-PRO, 96 h) | % inhibition at 1 mM ([3]; 0.2 μl Nanocin-PRO per well) | % inhibition at 1 mM ([3]; No Nanocin-PRO) | also measured
COc1ccc2c(C[C@@H]3NC(=O)[C@@H](NC(C)=O)CSCc4cccc(c4)CSC[C@@H](C(N)=O)NC(=O)CC(c4ccc5ccccc5c4)NC(=O)[C@H](CCCNC(=N)N)NC(=O)C4N(CCC4(C)C)C(=O)CN(C)C(=O)[C@H](CCCNC(=N)N)NC3=O)cc(=O)oc2c1 (single isomer, unassigned) [HILRa CL-15-D, Ac-C[Dac]R[Sar][dmPro]R[Nap]C-NH2] | 89.1% | 25.2% |  |  | 
PRGPRPVALKLALKLAL [HILR-001] |  |  |  |  | IC50 ([2]; as described in WO 2009/112536): 200 µM; killing of H460 cells versus primary diploid human fibroblasts, keratinocytes or MRC5 cells ([2]; in vitro, WO 2009/112536): selective killing
Ac-CDacHcaSarNapHcaNapC-NH2 [HILRa-CL-16] |  |  |  |  | cytotoxic activity against NCIH460 cells (in words) [1]: negligible activity
Ac-C[Sar]PRGPRP[Sar]C-NH2 (CXPRGPRPXC; N-acetyl; C-amide; sarcosines; HILRa-CL-02 Synthesized; Sar (2)..(2) X = Sarcosine; Sar (9)..(9) X = Sarcosine) |  |  | 2.0% | 0.0% | 
Ac-C[Sar]PKGPKP[Sar]C-NH2 (CXPKGPKPXC; N-acetyl; C-amide; sarcosines; HILRa-CL-11 Synthesized; Sar (2)..(2) X = Sarcosine; Sar (9)..(9) X = Sarcosine) |  |  | 1.2% | 0.0% | 
COc1ccc2c(C[C@@H]3NC(=O)[C@@H](NC(C)=O)CSCc4cccc(c4)CSC[C@@H](C(N)=O)NC(=O)CC(c4ccc5ccccc5c4)NC(=O)[C@H](CCCNC(=N)N)NC(=O)C4N(CCC4(C)C)C(=O)CN(C)C(=O)[C@H](CCCNC(=N)N)NC3=O)cc(=O)oc2c1 (single isomer, unassigned) [HILRa CL-15-A, Ac-C[Dac]R[Sar][dmPro]R[Nap]C-NH2] | 84.5% | 22.7% |  |  | 
Ac-CPRGPRPC-NH2 [HILRa-CL-01, CLIPS-cyclised peptide] |  |  | 12.9% | 0.0% | % inhibition at 1 mM ([3]; 0.2 μl Nanocin-PRO per well, listed as ‘clipped’ Pro-Arg-Gly-Pro-Arg-Pro warhead): over 10%
Ac-CDacHcaSarNapHcaNapC-NH2 [HILRa CL-16-B] | 0.0% | 14.1% |  |  | cytotoxic activity against NCIH460 cells (in words) [1]: completely removed the cell killing effect; also recorded: low detectable cancer cell-necrotic activity
COc1ccc2c(C[C@@H]3NC(=O)[C@@H](NC(C)=O)CSCc4cccc(c4)CSC[C@@H](C(N)=O)NC(=O)CC(c4ccc5ccccc5c4)NC(=O)[C@H](CCCNC(=N)N)NC(=O)CC(c4ccc5ccccc5c4)NC(=O)CN(C)C(=O)[C@H](CCCNC(=N)N)NC3=O)cc(=O)oc2c1 (single isomer, unassigned) [HILRa CL-17-C, Ac-C[Dac]R[Sar][Nap]R[Nap]C-NH2] | 99.4% | 99.6% |  |  | IC50 [1, 5]: ~0.88 µM
COc1ccc2c(C[C@@H]3NC(=O)[C@@H](NC(C)=O)CSCc4cccc(c4)CSC[C@@H](C(N)=O)NC(=O)CC(c4ccc5ccccc5c4)NC(=O)[C@H](CCCNC(=N)N)NC(=O)CC(c4ccc5ccccc5c4)NC(=O)CN(C)C(=O)[C@H](CCCNC(=N)N)NC3=O)cc(=O)oc2c1 (single isomer, unassigned) [HILRa CL-17-B, Ac-C[Dac]R[Sar][Nap]R[Nap]C-NH2] | 99.3% | 99.2% |  |  | IC50 [1, 5]: ~2.1 µM
Ac-C[Sar][Sar]PRGPRP[Sar][Sar]C-NH2 (CXXPRGPRPXXC; N-acetyl; C-amide; sarcosines; HILRa-CL-03 Synthesized; Sar (2)..(2) X = Sarcosine; Sar (3)..(3) X = Sarcosine; Sar (10)..(10) X = Sarcosine; Sar (11)..(11) X = Sarcosine) |  |  | 9.5% | 0.0% | 
CC(=O)O[C@H]1C(=O)[C@@]2(C)[C@H]([C@H](OC(=O)c3ccccc3)[C@]3(O)C[C@H](OC(=O)[C@H](O)[C@@H](NC(=O)c4ccccc4)c4ccccc4)C(C)=C1C3(C)C)[C@]1(OC(C)=O)CO[C@@H]1C[C@@H]2O [Paclitaxel, reference compound] |  |  |  |  | IC50 ([3]; Homo sapiens, NCI-H460, Paclitaxel control, printed in the 0.2 μl Nanocin-PRO per well column): 0.0074 µM; IC50 ([1]; Homo sapiens, NCI-H460, Paclitaxel control, No Nanocin-PRO column): 0.00495 µM
Ac-CDacHcaSarNapHcaNapC-NH2 [HILRa CL-16-A] | 0.0% | 9.9% |  |  | cytotoxic activity against NCIH460 cells (in words) [1]: completely removed the cell killing effect; also recorded: low detectable cancer cell-necrotic activity
Ac-C[Sar][Sar]PKGPRP[Sar][Sar]C-NH2 (CXXPKGPRPXXC; N-acetyl; C-amide; sarcosines; HILRa-CL-06 Synthesized; Sar (2)..(2) X = Sarcosine; Sar (3)..(3) X = Sarcosine; Sar (10)..(10) X = Sarcosine; Sar (11)..(11) X = Sarcosine) |  |  | 6.1% | 0.0% | 
